Entries after “also recorded” stand apart in the source; their conditions may differ. Where two headings read alike, the source gives them in different places.
Legend:
[1] = test system: skilled panelists; assay: Evaluation of the mouthfeel enhancer in Diet Cola, tasted blind by panel; assay type: in vivo; details: for Results (mouthfeel, sweetness, off-notes and other descriptors): 5 mg in 300 mL commercial Diet Cola, tasted blind by 4-5 skilled panelists by comparison with Diet Cola without mouthfeel enhancer (reference); for Overall result: deliver the mouthfeel required in the reduced-sugar beverage without further generating undesirable off-notes: 5 mg in 300 mL Diet Cola
[2] = Solubility observed in Diet Cola samples
Procedure: 5 mg of each of the following compounds, all obtained from Avanti Polar Lipids, Inc., Alabama, USA was added to 300 mL of a commercially available Diet Cola in a bottle. The bottles were then closed and shaken by hand for 1 min at room temperature. Following this, the bottles were sonicated for 5 min in an ultrasonic bath and then stored at room temperature overnight. All samples were tasted blind by 4-5 skilled panelists and assessed, by comparison with a Diet Cola not containing any mouthfeel enhancer, for mouthfeel, sweetness, off-notes and other descriptors.

Molecule	Results (mouthfeel, sweetness, off-notes and other descriptors) [1]	Overall result: deliver the mouthfeel required in the reduced-sugar beverage without further generating undesirable off-notes [1]	Solubility in Diet Cola [2]	Solubility in Diet Cola ([2]; 5 mg in 300 mL Diet Cola, shaken 1 min, sonicated 5 min, stored at room temperature overnight)
CCCCCCCCCC(=O)OC[C@@H](O)COP(=O)([O-])OCC[N+](C)(C)C [1-Capryl-2-hydroxy-glycero-3-phosphocholine]	slightly more mouthfeel, close to reference	–	–	–
CCCCCCCC/C=C\CCCCCCCC(=O)OCC(O)COP(=O)(O)OCC(O)CO (stereo not shown) [1-Oleoyl-2-hydroxy-glycero-3-phosphoglycerol]	less sour, more sweet, similar to reference	–	–	–
CCCCCCCCCCCCCCCC(=O)OCC(O)COP(=O)(O)OCC(O)CO (stereo not shown) [1-Palmitoyl-2-hydroxy-glycero-3-phosphoglycerol]	slightly more mouthfeel, creamy, similar to reference	–	–	–
CCCCCC(=O)OCC(COP(=O)(O)O)OC(=O)CCCCC (stereo not shown) [Dicaproylphosphatidic acid]	Thin, typical diet cola, slight metallic off-note, and sweet, acidic, more lemon, lingering/long lasting, and oily	–	–	–
CCCCCC(=O)OC[C@H](COP(=O)(O)OCC[N+](C)(C)C)OC(=O)CCCCC [Dicaproylphosphatidyl choline]	More acidity than others, sweeter, smoother, fuller,; also recorded: more mouthfeel, similar mouthfeel	Excellent results	–	–
CCCCCC(=O)OC[C@H](COP(=O)(O)OCCN)OC(=O)CCCCC [Dicaproylphosphatidyl ethanolamine]	Quite metallic, slightly more fatty, sweet lingering,; also recorded: thin, less sweet, less flavor, lingering fatty taste;	–	–	–
CCCCCCCC(=O)OC[C@H](COP(=O)([O-])OCC[N+](C)(C)C)OC(=O)CCCCCCC [Dicapryloylphosphatidylcholine]	Some mouthfeel, similar to reference, slight off-note	–	–	–
CCCCCCCCCCCC(=O)OC[C@H](COP(=O)(O)O)OC(=O)CCCCCCCCCCC [Dilauroylphosphatidic acid]	More Mouthfeel, fatty, fuller, clean, acidic, more; also recorded: sour and harsh, oily	–	–	–
CCCCCCCCCCCC(=O)OC[C@H](COP(=O)([O-])OCC[N+](C)(C)C)OC(=O)CCCCCCCCCCC [Dilauroylphosphatidyl choline]	–	Excellent results	–	–
CCCCCCCCCCCC(=O)OC[C@H](COP(=O)(O)OCCN)OC(=O)CCCCCCCCCCC [Dilauroylphosphatidyl ethanolamine]	Very similar to reference, slightly fuller, sweeter,; also recorded: citrusy	–	–	–
CCCCCCCCCCCC(=O)OCC(COP(=O)(O)OCC(O)CO)OC(=O)CCCCCCCCCCC (stereo not shown) [Dilauroylphosphatidyl glycerol]	Sweeter, similar to reference, fatty, off-note, waxy,; also recorded: good sweetness, slightly flat aroma	–	–	–
CCCCCCCCCCCCCC(=O)OC[C@H](COP(=O)([O-])OCC[N+](C)(C)C)OC(=O)CCCCCCCCCCCCC [Dimyristoylphosphatidylcholine]	carbonated, sweeter	Excellent results	–	–
CCCCCCCC/C=C\CCCCCCCC(=O)OC[C@H](COP(=O)(O)O)OC(=O)CCCCCCC/C=C\CCCCCCCC [Dioleoylphosphatidic acid]	More mouthfeel, fatty, fuller, very drying,; also recorded: mouthcoating, less lingering, oily	–	–	–
CCCCCCCC/C=C\CCCCCCCC(=O)OC[C@H](COP(=O)(O)OCCN)OC(=O)CCCCCCC/C=C\CCCCCCCC [Dioleoylphosphatidyl ethanolamine]	Slightly sweeter, slightly more bitter, fatty/waxy off-	–	not completely soluble	–
CCCCCCCC/C=C\CCCCCCCC(=O)OC[C@H](COP(=O)(O)OCC(O)CO)OC(=O)CCCCCCC/C=C\CCCCCCCC (stereo partly shown) [Dioleoylphosphatidyl glycerol]	chemical, slight off-note on taste	–	–	–
CCCCCCCCCCCCCCCC(=O)OC[C@H](COP(=O)(O)O)OC(=O)CCCCCCCCCCCCCCC [Dipalmitoylphosphatidic acid]	smooth, good mouthfeel, slightly oily, no off-note; also recorded: More mouthfeel, fatty, fuller, heavy, sweeter,	Excellent results	–	–
CCCCCCCCCCCCCCCC(=O)OC[C@H](COP(=O)([O-])OCC[N+](C)(C)C)OC(=O)CCCCCCCCCCCCCCC [Dipalmitoylphosphatidyl choline]	Sweeter, nice sweetness but lingering, good; also recorded: difference, slightly fuller, slightly fatty	Excellent results	–	–
CCCCCCCCCCCCCCCC(=O)OCC(COP(=O)(O)OCCN)OC(=O)CCCCCCCCCCCCCCC (stereo not shown) [Dipalmitoylphosphatidyl ethanolamine]	less flavor, lingering fatty	–	–	completely soluble
CCCCCCCCCCCCCCCC(=O)OCC(COP(=O)(O)OCC(O)CO)OC(=O)CCCCCCCCCCCCCCC (stereo not shown) [Dipalmitoylphosphatidyl glycerol]	Seems less carbonated, less acidic, more citrusy; also recorded: aroma, better mouthfeel, less metallic, good; also recorded: no off-note	Excellent results	–	–
Dicaprylphosphatidylcholine	More mouthfeel, good mouthfeel, more body,; also recorded: creamy, sl. more sweet, good sweetness	Excellent results	–	–
